Our source for the Activity, EC50 and inhibition values is ChEMBL document CHEMBL3399992, “Identification of anti-HIV agents with a novel benzo[4,5]isothiazolo[2,3-a]pyrimidine scaffold” (Bioorg Med Chem, 2015).

The nature of data set [1]: Cytotoxicity against human NCK45 cells at 10 uM. It counts as cell-based. Particulars: nck45, 10 µM.
Data set [2] deals with Human immunodeficiency virus. Briefly: Antiviral activity against HIV 3B assessed as inhibition of infection of NCK45-beta-Gal cells after 48 hrs. It counts as functional, organism-based. Particulars: Human immunodeficiency virus 1, 3B.
Data set [3] relates to Human immunodeficiency virus. The data set can be described thus: Antiviral activity against HIV 3B assessed as prevention of early stage infection of NCK45-beta-Gal cells up to 48 hrs. It counts as functional, organism-based.

By EC50 is commonly meant the concentration at which the effect is half-maximal.

Structures are written as SMILES. The source made the active and inactive calls. The rule behind the calls is not given here.

Consider `FC(F)(F)c1ccc2c(c1)C1=NCCCN1S2`, for which the Activity entry in data set [1] is listed as “Non-toxic”. Moreover, the concentration for a half-maximal effect (EC50) in data set [2] amounted to 1780 nM.

Regarding `Brc1cccc2c1SN1CCCN=C21`, the Activity entry in data set [1] was “Non-toxic”. For the same molecule, in data set [2], the EC50 was over 10000 nM.

`COC(=O)c1cccc(-c2ccc3c(c2)SN2CCCN=C32)c1`: in data set [1], the Activity result is given as “Non-toxic”. Moreover, the inhibition entry in data set [3] is “Active”. The concentration for a half-maximal effect (EC50) in data set [2] is 50 nM.

As to `O=[N+]([O-])c1ccc(-c2ccc3c(c2)SN2CCCN=C32)cc1`, the Activity entry in data set [1] was “Non-toxic”. The half-maximal effective concentration (EC50) in data set [2] stood at 80 nM.

On to `Oc1ccc(-c2ccc3c(c2)SN2CCCN=C32)cc1`, for which the Activity entry in data set [1] is given as “Non-toxic”. The concentration for a half-maximal effect (EC50) in data set [2] was found to be 1280 nM.

As for `c1ccc2c3c(ccc2c1)C1=NCCCN1S3`, the Activity entry in data set [1] is recorded as “Toxic”. In data set [2], the EC50 was over 1000 nM.

Take `c1ccc(-c2ccc3c(c2)SN2CCCN=C32)cc1`: in data set [1], the Activity entry was “Non-toxic”. For the same molecule, in data set [2], the EC50 was found to be 300 nM.

Take `CC(=O)Nc1ccc2c(c1)SN1CCCN=C21`: the Activity result in data set [1] is “Non-toxic”. Moreover, the half-maximal effective concentration (EC50) in data set [2] was over 10000 nM.

For `c1cn(-c2ccc3c(c2)SN2CCCN=C32)nn1`, the Activity result in data set [1] is “Non-toxic”. For the same molecule, in data set [2], the EC50 worked out at 420 nM.

Take `Oc1cccc(-c2ccc3c(c2)SN2CCCN=C32)c1`: the Activity entry in data set [1] is “Non-toxic”. In addition, the EC50 in data set [2] was determined as 1470 nM.

With `c1cncc(-c2ccc3c(c2)SN2CCCN=C32)c1`, in data set [1], the Activity entry is given as “Non-toxic”. Moreover, the EC50 in data set [2] amounted to 560 nM.

For `O=[N+]([O-])c1cccc(-c2ccc3c(c2)SN2CCCN=C32)c1`, the Activity entry in data set [1] is reported as “Non-toxic”. Further, the EC50 in data set [2] worked out at 120 nM.

For `COc1ccc(-c2ccc3c(c2)SN2CCCN=C32)cc1`, the Activity result in data set [1] was “Toxic”. Also, the concentration giving a half-maximal response (EC50) in data set [2] was determined as 90 nM.

Turning to `COc1cccc(-c2ccc3c(c2)SN2CCCN=C32)c1`, the Activity result in data set [1] is “Non-toxic”. Besides, the half-maximal effective concentration (EC50) in data set [2] was 100 nM.

As for `c1cc2c(cc1-c1ccc3c(c1)SN1CCCN=C31)OCO2`, in data set [1], the Activity entry is “Non-toxic”. The concentration giving a half-maximal response (EC50) in data set [2] was found to be 160 nM.

Consider `O=[N+]([O-])c1ccc2c(c1)SN1CCCN=C21`, for which the Activity entry in data set [1] is reported as “Non-toxic”. In data set [2], the EC50 is 1790 nM.

`COc1ccc2c(c1)C1=NCCCN1S2`: in data set [1], the Activity result was “Non-toxic”. For the same molecule, the half-maximal effective concentration (EC50) in data set [2] was 2110 nM.

For the molecule `c1cnn(-c2ccc3c(c2)SN2CCCN=C32)c1`, in data set [1], the Activity result is on record as “Non-toxic”. The EC50 in data set [2] was determined as 410 nM.

For the molecule `c1ccc2c(c1)SN1CCCN=C21`, the Activity entry in data set [1] was “Non-toxic”. Further, the inhibition result in data set [3] was “Active”. The concentration for a half-maximal effect (EC50) in data set [2] amounted to 290 nM.

Turning to `c1ccc2cc(-c3ccc4c(c3)SN3CCCN=C43)ccc2c1`, the Activity entry in data set [1] is “Non-toxic”. Moreover, the EC50 in data set [2] was determined as 120 nM.

Turning to `N=C1Sc2ccccc2C2=NCCCN12`, the inhibition entry in data set [3] was “Active”. In data set [2], the EC50 was 300 nM.

On to `Brc1ccc2c(c1)SN1CCCN=C21`, for which the Activity entry in data set [1] was “Non-toxic”. In addition, the half-maximal effective concentration (EC50) in data set [2] stood at 220 nM.

Regarding `c1cc(-c2ccc3c(c2)SN2CCCN=C32)ccn1`, in data set [1], the Activity entry was “Non-toxic”. Moreover, the 50% effective concentration (EC50) in data set [2] came out at 560 nM.

For the molecule `Cc1ccc2c(c1)C1=NCCCN1S2`, the Activity entry in data set [1] is listed as “Non-toxic”. In addition, the EC50 in data set [2] came out at 850 nM.

Take `COC(=O)c1ccc(-c2ccc3c(c2)SN2CCCN=C32)cc1`: the Activity result in data set [1] is “Non-toxic”. In data set [2], the EC50 amounted to 160 nM.

As to `FC(F)(F)c1ccc2c(c1)SN1CCCN=C21`, the Activity entry in data set [1] is on record as “Non-toxic”. In addition, the EC50 in data set [2] amounted to 1280 nM.

As to `c1ccc(-c2ccc3c(c2)C2=NCCCN2S3)cc1`, the Activity result in data set [1] was “Non-toxic”. Also, in data set [2], the EC50 turned out to be 560 nM.

With `COc1ccc2c(c1)SN1CCCN=C21`, the Activity entry in data set [1] is reported as “Non-toxic”. The 50% effective concentration (EC50) in data set [2] is 580 nM.

With `Brc1ccc2c(c1)C1=NCCCN1S2`, in data set [1], the Activity entry was “Non-toxic”. For the same molecule, in data set [2], the EC50 was found to be 1010 nM.

Consider `c1coc(-c2ccc3c(c2)SN2CCCN=C32)c1`, for which the Activity result in data set [1] is given as “Non-toxic”. In addition, the inhibition result in data set [3] was “Active”. For the same molecule, in data set [2], the EC50 was determined as 50 nM.

As for `c1ccc(-c2ccc3c(c2)SN2CCCN=C32)nc1`, in data set [1], the Activity result was “Non-toxic”. Also, the EC50 in data set [2] turned out to be 340 nM.

Turning to `c1cc(-c2ccc3c(c2)SN2CCCN=C32)cs1`, the Activity entry in data set [1] was “Non-toxic”. In addition, the concentration for a half-maximal effect (EC50) in data set [2] was 80 nM.
